Source: PMC10327353 (Breast Cancer Research : BCR, 2023)
“And” between values parts separate entries of the source, which are not always exact repeats. Equal entries are not always repeated.

Experiment: Phase 1 study: safety and tolerability
Type: in vivo
Description: The maximum tolerated dose (MTD) of DZD1516 was defined based on safety data and the Bayesian optimal interval (BOIN) design (Additional file 1). The definition of DLT is provided in Additional file 1.
The AE grading was assessed according to the NCI-Common Terminology Criteria for Adverse Events (CTCAE) (version 5.0) and was monitored until 28 days after the last dose.
Eligible patients received single oral dosing of DZD1516 on Cycle 0 Day 1 (C0D1), followed by a 7-day washout. Twice daily oral dosing (bid) of DZD1516 was commenced from C1D1 in a continuous 21-day cycle until disease progression, unacceptable toxicity, or withdrawal of consent. All doses were taken under fed conditions (within 30 minutes after a meal).
Planned dosing consisted of 25, 50, 100, 200, 300, and 400 mg. Each dose escalation cohort will comprise a minimum of three and a maximum of six evaluable patients (except only one patient in the starting dose cohort). The maximum tolerated dose of DZD1516 was defined according to safety data and the Bayesian optimal interval (BOIN) design. Dose escalation/de-escalation rule with target toxicity rate for the MTD is 0.30 with interval of (0.20, 0.33).
DLTs were any adverse event (AE) not clearly attributable to the patient’s disease, including ≥ grade 4 hematological toxicities present for ≥ 4 days, grade 3 thrombocytopenia with bleeding, or grade 4 thrombocytopenia lasting for > 5 days, ≥ grade 3 non-hematological toxicities that is dose-limiting in the judgment of the investigators. Any other toxicity that is greater than that at baseline, is clinically significant or unacceptable, and is judged to be a DLT by the SRC. Exceptions included alopecia of any grade and isolated grade 3 laboratory change without clinical sequelae or clinical significance.
Safety evaluations were conducted at screening, on Day 1, 8, and 15 of Cycle 1, on Day 1 of each subsequent treatment cycle, at the end-of-treatment visit, and clinically indicated. Safety assessments included clinical laboratory measurements (hematology, chemistry, coagulation, and urinalysis), electrocardiogram (ECG), Echocardiogram/MUGA scan, ECOG performance status, vital signs, and physical examinations.

COc1cc(O[C@H]2CCN(C)CC2(F)F)c2c(Nc3ccc(Oc4ccn5ncnc5c4)c(C)c3)ncnc2c1 [DZD1516]
Decreased appetite, ≥ Grade 3 (300 mg (N = 4)): 0 (0.0) n (%) | Dizziness, Any Grade (300 mg (N = 4)): 1 (25.0) n (%) | Dizziness, ≥ Grade 3 (300 mg (N = 4)): 1 (25.0) n (%) | Drug-related TEAE: Grade 3 (300 mg (N = 4)): 2 (50.0) n (%) | Drug-related TEAE: Leading to death (300 mg (N = 4)): 0 (0.0) n (%) | Drug-related TEAE: Leading to dose reduction (300 mg (N = 4)): 3 (75.0) n (%) | Drug-related TEAE: Leading to treatment discontinuation (300 mg (N = 4)): 0 (0.0) n (%) | Drug-related TEAE: Leading to treatment interruption (300 mg (N = 4)): 2 (50.0) n (%) | Drug-related TEAE: SAE (300 mg (N = 4)): 0 (0.0) n (%) | Fatigue, Any Grade (300 mg (N = 4)): 1 (25.0) n (%) | Fatigue, ≥ Grade 3 (300 mg (N = 4)): 1 (25.0) n (%) | Gastrointestinal disorders, Any Grade (300 mg (N = 4)): 4 (100.0) n (%) | Gastrointestinal disorders, ≥ Grade 3 (300 mg (N = 4)): 1 (25.0) n (%) | General disorders and administration site conditions, Any Grade (300 mg (N = 4)): 3 (75.0) n (%) | General disorders and administration site conditions, ≥ Grade 3 (300 mg (N = 4)): 2 (50.0) n (%) | Headache, Any Grade (300 mg (N = 4)): 4 (100.0) n (%) | Headache, ≥ Grade 3 (300 mg (N = 4)): 0 (0.0) n (%) | Hemoglobin decreased, Any Grade (300 mg (N = 4)): 0 (0.0) n (%) | Hemoglobin decreased, ≥ Grade 3 (300 mg (N = 4)): 0 (0.0) n (%) | Investigations, Any Grade (300 mg (N = 4)): 1 (25.0) n (%) | Investigations, ≥ Grade 3 (300 mg (N = 4)): 0 (0.0) n (%) | Lipase increased, Any Grade (300 mg (N = 4)): 0 (0.0) n (%) | Lipase increased, ≥ Grade 3 (300 mg (N = 4)): 0 (0.0) n (%) | Malaise, Any Grade (300 mg (N = 4)): 1 (25.0) n (%) | Malaise, ≥ Grade 3 (300 mg (N = 4)): 1 (25.0) n (%) | Metabolism and nutrition disorders, Any Grade (300 mg (N = 4)): 3 (75.0) n (%) | Metabolism and nutrition disorders, ≥ Grade 3 (300 mg (N = 4)): 0 (0.0) n (%) | Musculoskeletal and connective tissue disorders, Any Grade (300 mg (N = 4)): 3 (75.0) n (%) | Musculoskeletal and connective tissue disorders, ≥ Grade 3 (300 mg (N = 4)): 1 (25.0) n (%) | Nausea, Any Grade (300 mg (N = 4)): 4 (100.0) n (%) | Nausea, ≥ Grade 3 (300 mg (N = 4)): 1 (25.0) n (%) | Nervous system disorders, Any Grade (300 mg (N = 4)): 4 (100.0) n (%) | Nervous system disorders, ≥ Grade 3 (300 mg (N = 4)): 2 (50.0) n (%) | Participants with any TEAE, Any Grade (300 mg (N = 4)): 4 (100.0) n (%) | Participants with any TEAE, ≥ Grade 3 (300 mg (N = 4)): 3 (75.0) n (%) | Platelet count decreased, Any Grade (300 mg (N = 4)): 0 (0.0) n (%) | Platelet count decreased, ≥ Grade 3 (300 mg (N = 4)): 0 (0.0) n (%) | Proteinuria, Any Grade (300 mg (N = 4)): 1 (25.0) n (%) | Proteinuria, ≥ Grade 3 (300 mg (N = 4)): 0 (0.0) n (%) | Renal and urinary disorders, Any Grade (300 mg (N = 4)): 1 (25.0) n (%) | Renal and urinary disorders, ≥ Grade 3 (300 mg (N = 4)): 0 (0.0) n (%) | Subjects with any TEAE (300 mg (N = 4)): 4 (100.0) n (%) | Subjects with any drug-related TEAE (300 mg (N = 4)): 4 (100.0) n (%) | Vomiting, Any Grade (300 mg (N = 4)): 3 (75.0) n (%) | Vomiting, ≥ Grade 3 (300 mg (N = 4)): 1 (25.0) n (%) | White blood cell count decreased, Any Grade (300 mg (N = 4)): 0 (0.0) n (%) | White blood cell count decreased, ≥ Grade 3 (300 mg (N = 4)): 0 (0.0) n (%) | diarrhea (300 mg cohort): A single case of grade 2 diarrhea | dose-limiting toxicities (DLTs) (300 mg cohort): two out of four patients experienced DLTs | dose-limiting toxicity (DLT) (25–200 mg cohorts): no dose-limiting toxicity (DLT) observed | diarrhea or skin rash (MTD (250 mg) or lower doses): No diarrhea or skin rash of any grade was observed | Alanine aminotransferase increased, Any Grade (Total (N = 23)): 3 (13.0) n (%) | Alanine aminotransferase increased, ≥ Grade 3 (Total (N = 23)): 0 (0.0) n (%) | Anemia, Any Grade (Total (N = 23)): 3 (13.0) n (%) | Anemia, ≥ Grade 3 (Total (N = 23)): 0 (0.0) n (%) | Any TEAE: Grade 3 (Total (N = 23)): 6 n (%) and 6 (26.1) n (%) | Any TEAE: Leading to death (Total (N = 23)): 0 (0.0) n (%) | Any TEAE: Leading to dose reduction (Total (N = 23)): 3 n (%) and 3 (13.0) n (%) | Any TEAE: Leading to treatment discontinuation (Total (N = 23)): 1 (4.3) n (%) | Any TEAE: Leading to treatment interruption (Total (N = 23)): 5 n (%) and 5 (21.7) n (%) | Any TEAE: SAE (Total (N = 23)): 2 (8.7) n (%) | Aspartate aminotransferase increased, Any Grade (Total (N = 23)): 5 (21.7) n (%) | Aspartate aminotransferase increased, ≥ Grade 3 (Total (N = 23)): 0 (0.0) n (%) | Blood and lymphatic system disorders, Any Grade (Total (N = 23)): 3 (13.0) n (%) | Blood and lymphatic system disorders, ≥ Grade 3 (Total (N = 23)): 0 (0.0) n (%) | Blood bilirubin increased, Any Grade (Total (N = 23)): 4 (17.4) n (%) | Blood bilirubin increased, ≥ Grade 3 (Total (N = 23)): 0 (0.0) n (%) | Cardiac disorders, Any Grade (Total (N = 23)): 3 (13.0) n (%) | Cardiac disorders, ≥ Grade 3 (Total (N = 23)): 0 (0.0) n (%) | Constipation, Any Grade (Total (N = 23)): 3 (13.0) n (%) | Constipation, ≥ Grade 3 (Total (N = 23)): 0 (0.0) n (%) | Decreased appetite, Any Grade (Total (N = 23)): 4 (17.4) n (%) | Decreased appetite, ≥ Grade 3 (Total (N = 23)): 0 (0.0) n (%) | Dizziness, Any Grade (Total (N = 23)): 3 (13.0) n (%) | Dizziness, ≥ Grade 3 (Total (N = 23)): 1 (4.3) n (%) | Drug-related TEAE: Grade 3 (Total (N = 23)): 4 n (%) and 4 (17.4) n (%) | Drug-related TEAE: Leading to death (Total (N = 23)): 0 (0.0) n (%) | Drug-related TEAE: Leading to dose reduction (Total (N = 23)): 3 (13.0) n (%) | Drug-related TEAE: Leading to treatment discontinuation (Total (N = 23)): 0 (0.0) n (%) | Drug-related TEAE: Leading to treatment interruption (Total (N = 23)): 3 (13.0) n (%) | Drug-related TEAE: SAE (Total (N = 23)): 1 (4.3) n (%) | Fatigue, Any Grade (Total (N = 23)): 4 (17.4) n (%) | Fatigue, ≥ Grade 3 (Total (N = 23)): 1 (4.3) n (%) | Gastrointestinal disorders, Any Grade (Total (N = 23)): 10 (43.5) n (%) | Gastrointestinal disorders, ≥ Grade 3 (Total (N = 23)): 3 (13.0) n (%) | General disorders and administration site conditions, Any Grade (Total (N = 23)): 8 (34.8) n (%) | General disorders and administration site conditions, ≥ Grade 3 (Total (N = 23)): 2 (8.7) n (%) | Headache, Any Grade (Total (N = 23)): 10 (43.5) n (%) | Headache, ≥ Grade 3 (Total (N = 23)): 0 (0.0) n (%) | Hemoglobin decreased, Any Grade (Total (N = 23)): 7 (30.4) n (%) | Hemoglobin decreased, ≥ Grade 3 (Total (N = 23)): 0 (0.0) n (%) | Investigations, Any Grade (Total (N = 23)): 14 (60.9) n (%) | Investigations, ≥ Grade 3 (Total (N = 23)): 2 (8.7) n (%) | Lipase increased, Any Grade (Total (N = 23)): 3 (13.0) n (%) | Lipase increased, ≥ Grade 3 (Total (N = 23)): 0 (0.0) n (%) | Malaise, Any Grade (Total (N = 23)): 3 (13.0) n (%) | Malaise, ≥ Grade 3 (Total (N = 23)): 1 (4.3) n (%) | Metabolism and nutrition disorders, Any Grade (Total (N = 23)): 11 (47.8) n (%) | Metabolism and nutrition disorders, ≥ Grade 3 (Total (N = 23)): 0 (0.0) n (%) | Musculoskeletal and connective tissue disorders, Any Grade (Total (N = 23)): 7 (30.4) n (%) | Musculoskeletal and connective tissue disorders, ≥ Grade 3 (Total (N = 23)): 2 (8.7) n (%) | Nausea, Any Grade (Total (N = 23)): 6 (26.1) n (%) | Nausea, ≥ Grade 3 (Total (N = 23)): 1 (4.3) n (%) | Nervous system disorders, Any Grade (Total (N = 23)): 14 (60.9) n (%) | Nervous system disorders, ≥ Grade 3 (Total (N = 23)): 2 (8.7) n (%) | Participants with any TEAE, Any Grade (Total (N = 23)): 22 (95.7) n (%) | Participants with any TEAE, ≥ Grade 3 (Total (N = 23)): 6 (26.1) n (%) | Platelet count decreased, Any Grade (Total (N = 23)): 3 (13.0) n (%) | Platelet count decreased, ≥ Grade 3 (Total (N = 23)): 0 (0.0) n (%) | Proteinuria, Any Grade (Total (N = 23)): 4 (17.4) n (%) | Proteinuria, ≥ Grade 3 (Total (N = 23)): 0 (0.0) n (%) | Renal and urinary disorders, Any Grade (Total (N = 23)): 5 (21.7) n (%) | Renal and urinary disorders, ≥ Grade 3 (Total (N = 23)): 0 (0.0) n (%) | Subjects with any TEAE (Total (N = 23)): 22 (95.7) n (%) | Subjects with any drug-related TEAE (Total (N = 23)): 21 (91.3) n (%) | Vomiting, Any Grade (Total (N = 23)): 8 (34.8) n (%) | Vomiting, ≥ Grade 3 (Total (N = 23)): 2 (8.7) n (%) | White blood cell count decreased, Any Grade (Total (N = 23)): 3 (13.0) n (%) | White blood cell count decreased, ≥ Grade 3 (Total (N = 23)): 0 (0.0) n (%) | grade 4 or 5 AEs (all dose levels): No grade 4 or 5 AEs were reported | maximum tolerated dose (MTD) (patients, BID): 250 mg
